Legend:
[1] = system: mouse sperm; test: Reactive oxygen species in mouse sperm; assay type: cell-based; conditions: as a result of S1P treatment
Procedure: (§1) Treatment was performed with genotoxic stress (1 mM H2O2), S1P (200 μM), and S1P with genotoxic stress and control in culture for one hour. Also, the use of an ATM inhibitor was utilized (10 μM) (KU-55593, Abcam) (Li et al., 2014). We assessed DNA damage, apoptosis, and chromatin integrity. We also studied the DNA DSB repair gene expression by qRT-PCR in sperm lysates.

[2] = system: mouse sperm; test: Neutral comet assay on mouse sperm; assay type: cell-based; conditions: for percent tail DNA, neutral comet: mouse sperm, n=9, mean±SEM
Procedure: as §1
Slides were prepared 48 hours prior to experimentation by coating normal glass microscope slides with 500 μl normal melting point agar (NMPA, 0.5% w/v in PBS) solution and left to dry at room temperature for no less than 48 hours. Once samples were obtained, 10 μl of mouse sperm suspension was mixed with 90 μl of 0.5% low melting point agar (LMPA). Then, this 100 μl solution was added to the NMPA-coated slides. Coverslips were added and slides were placed on a metallic tray on ice and in the dark for 5 minutes. The cover slips were then removed and another layer of LMPA was added. Cover slips were subsequently replaced before the LMPA hardened. Slides were then kept in the dark on ice again for another 5 minutes. After ten minutes, the cover slips were removed and slides were placed in staining jars containing ice cold lysing solution (2.5 M NaCl, 100 mM EDTA, sodium N-laurylsacrosinate [SLS]. [1% w/v] and 10 mM Trizma base pH10, and 1% Triton-X-100 and 10% DMSO [immediately adding before use]) for 1 hour at 4° C. in a dark place.
After this lysis step, the slides were washed three times for 5 minutes with the cold electrophoresis buffer (0.089 M Tris base, 0.089 M boric acid and 2 mM EDTA [pH 8.3]), and then placed flatly in the electrophoresis tank face up for 30 minutes. This incubation period was used to achieve the unwinding of the DNA. Electrophoresis was then performed at 18 V for 60 minutes. After this, slides were washed twice in PBS for 5 minutes each. Before analysis could occur, the sperm within the slides needed to be fixed by two 10 minute washes in ethanol, and then air drying at room temperature. Ethidium bromide (50 μl at 10 μg/ml in water) was then added on the slide, and sealed with a cover slip. Slides were kept moist, wrapped in aluminum foil to prevent light exposure, and stored at 4° C. until analysis (Smart et al., 2008).
Slides from both alkaline and neutral comets were imaged by fluorescence microscopy using a Nikon OPTIPHOT microscope. ImageJ was used for comet assay analysis, which calculated tail length, tail moment, and % of DNA in the tail. […] The comets were “on scale” for the calculations to be correct (the brightest pixels of interest were below 255 on an 8-bit scale). […] To analyze the slides, an oval around the sperm head was drawn and calculated and then an oval around the sperm tail was drawn and calculated. […] It was calculated as the Pythagorean distance between two points. […]

[3] = system: mouse sperm; test: DNA DSBs by γH2AX expression in S1P-treated mouse sperm; assay type: cell-based; conditions: for DNA DSBs as reported by γH2AX expression: culture 1 hour, n=9, mean±SEM
Procedure: as §1
DNA damage assessment of testicular tissue from mice utilized a Ser139 phosphorylation-specific γH2AX antibody (IHC-00059; Bethyl Laboratories) performed with enzymatic diaminobenzidine staining (Vector). Histone H2AX, one of the several variants of the nucleosome core histone H2A, becomes phosphorylated on Ser139 in response to DSBs (γH2AX). Within seconds of DSB formation, γH2AX foci are formed at the site of DNA damage, which can be detected by confocal microscopy or immunohistochemistry to quantify DNA damage. Foci of γH2AX represent DDR in a 1:1 manner, enabling sensitive quantification of potential DSBs (Katsube et al., 2014). Primordial follicles containing a γH2AX-positive oocyte were considered to be DNA-damaged (Rogakou et al., 1998). Sperm were assessed for DNA damage with antibody to γH2AX (613402; BioLegend) and secondary antibody Alexa Fluor 488 (A-11029; Invitrogen), followed by nuclear counterstaining with diamidino-2-phenylindole (DAPI; Fisher Scientific). Immunofluorescence for SD sperm samples was measured by FACScan flow cytometer (Becton-Dickinson) or laser scanning cytometry (Halicka et al., 2008).

[4] = system: RAD50; test: qRT-PCR DNA DSB repair gene expression in mouse sperm lysates, RAD50; assay type: cell-based; conditions: S1P treatment, no ATM inhibitor
Procedure: as §1
(§2) Sperm pellets previously snap-frozen in PBS were thawed. RNA was extracted using the trizol method (Rio et al., 2010). The quality and quantity of the RNA were measured with NanoDrop 2000 from Thermo Scientific. RNA (2 μg) from each sample was taken for reverse transcription with dTVN and N9 primers and SuperScript III reverse transcriptase, all procured from Invitrogen. The resulting cDNA was used to perform real-time qPCR with SYBR Green on an Applied Biosystems 7900HT Real-Time PCR machine was used. To determine the relative expression of various DNA repair genes in mouse sperm, we used the ΔΔCt method, which makes use of the expression of housekeeping genes. GAPDH was used as housekeeping gene. Primers were procured from Integrated DNA technologies (IDT) (Table 3).

[5] = system: MRE11; test: qRT-PCR DNA DSB repair gene expression in mouse sperm lysates, MRE11; assay type: cell-based
Procedure: as §1, §2

[6] = in vivo continuous or intermittent administration to mice (Soleimani et al., 2011; Li et al, 2014); cited from earlier work
[7] = system: RAD51; test: qRT-PCR DNA DSB repair gene expression in mouse sperm lysates, RAD51; assay type: cell-based
Procedure: as §1, §2

[8] = system: ATM; test: qRT-PCR DNA DSB repair gene expression in mouse sperm lysates, ATM; assay type: cell-based
Procedure: as §1, §2

[9] = S1P treatment, no ATM inhibitor
[10] = S1P with genotoxic stress, with ATM inhibitor, n=8, mean±SEM

What does the source list for `CCCCCCCCCCCCC/C=C/[C@@H](O)[C@@H](N)COP(=O)(O)O` [S1P, sphingosine 1 phosphate]?
reactive oxygen species [1]: no significant difference; DNA damage, neutral comet ([2]; S1P-treated mouse sperm with ATM inhibitor): no significant difference; percent tail DNA, neutral comet ([2]; S1P alone, without ATM inhibitor): 18.5±0.59%; percent tail DNA, neutral comet ([2]; S1P with H2O2, without ATM inhibitor): 18.8±0.73%; DNA DSBs as reported by γH2AX expression ([3]; S1P (200 μM) in the presence of genotoxic stress (1 mM H2O2)): 8.29±1.45; DNA DSBs as reported by γH2AX expression ([3]; S1P alone (200 μM)): 8.94±1.48; DNA integrity (protective effect of S1P) ([3]; in the presence of an ATM inhibitor (10 μM KU-55593), n=9): ATM inhibition reversed the protective effects; RAD50 expression (qRT-PCR) [4]: no significant difference; MRE11 expression (qRT-PCR) ([5]; S1P treatment with ATM inhibitor): no significant difference; MRE11 expression (qRT-PCR) [5, 9]: no significant difference; side effects [6]: no detectable side effects; RAD51 expression (qRT-PCR) [7, 9]: no significant difference; RAD51 expression (qRT-PCR) [7, 10]: 0.015±0.056; ATM expression (qRT-PCR) [8, 9]: no significant difference; ATM gene expression (qRT-PCR) [8, 10]: 0.042±0.011

— patent US20190183910A1, “ENHANCING DNA REPAIR AND PREVENTING AGING AND ITS CONSEQUENCES IN REPRODUCTIVE AND OTHER CELLS” (NEW YORK MEDICAL COLLEGE, priority 2016, published 2019)
